Data as given in patent US20020052295A1, “Diacyl derivatives of propylene diamine having herbicidal activity” (priority 1999, published 2002).

What was measured:
Conditions in all cases: lowest tested rate giving 80% or greater inhibition, approx. 14 days after planting and treating, greenhouse
PANDI = test: Pre-emergence herbicidal activity on PANDI (fall panicum); type: in vivo, Panicum dichotomiflorum
Description: (§1) All such uses, and the biological activity enabling such uses, are embraced by the term “herbicidal” herein. Tables 15 and 16 summarize results of tests conducted as described below to determine the pre-emergence herbicidal activity, in the form of a GR80 value, of illustrative compounds of this invention. […] Where herbicidal activity was evident but 80% inhibition was not achieved at the highest rate tested (typically 1000 g/ha), an asterisk (*) is shown in the following tables. Herbicidal activity evident in the form of symptoms of phytotoxicity, in the absence of at least 80% inhibition at any rate, is indicated in the tables by “phyto”. A blank cell in the following tables indicates no herbicidal or phytotoxic response at any rate tested.
(§2) The pre-emergence tests were conducted by the following procedure. Topsoil was sieved to pass through a 1.27 cm screen. Fertilizer was added to the topsoil and the mixture was then sterilized by heating. The topsoil mixture was placed in a pot and compacted to a depth of 1.0 to 1.25 cm from the top of the pot. Seeds of each of several monocotyledonous and dicotyledonous annual plant species were placed on top of the soil. Additional soil was subsequently placed over the seeds to level-fill the pot. A known amount of each test compound dissolved or suspended in an appropriate organic solvent was diluted with a 50:50 mix of acetone and water and applied to the surface of the soil. After treatment the plants were placed in a greenhouse with a 30/21° C. day/night temperature regime where they received 0.64 cm of overhead irrigation. All subsequent watering consisted of a light overhead mist and/or subirrigation as needed for germination and growth.
(§3) Approximately 14 days after planting and treating, the plants were observed and herbicidal efficacy recorded as percent inhibition by comparison with untreated plants.
(§4) The plant species usually regarded as weeds which were utilized in the tests are identified in the tables below according to the following legend, in which “d” indicates a dicotyledonous species and “m” a monocotyledonous species. All monocotyledonous species included in the tests herein are grasses.

DATST = test: Pre-emergence herbicidal activity on DATST (jimsonweed); type: in vivo, Datura stramonium
Description: as §1, §2, §3, §4

CIRAR = test: Pre-emergence herbicidal activity on CIRAR (canada thistle, seedling); type: in vivo, Cirsium arvense
Description: as §1, §2, §3, §4

SOLNI = test: Pre-emergence herbicidal activity on SOLNI (black nightshade); type: in vivo, Solanum nigrum
Description: as §1, §2, §3, §4

POROL = test: Pre-emergence herbicidal activity on POROL (common purslane); type: in vivo, Portulaca oleracea
Description: as §1, §2, §3, §4

ABUTH = test: Pre-emergence herbicidal activity on ABUTH (velvetleaf); type: in vivo, Abutilon theophrasti
Description: as §1, §2, §3, §4

SETFA = test: Pre-emergence herbicidal activity on SETFA (giant foxtail); type: in vivo, Setaria faberi
Description: as §1, §2, §3, §4

CONAR = test: Pre-emergence herbicidal activity on CONAR (field bindweed); type: in vivo, Convolvulus arvensis
Description: as §1, §2, §3, §4

DIGSA = test: Pre-emergence herbicidal activity on DIGSA (large crabgrass); type: in vivo, Digitaria sanguinalis
Description: as §1, §2, §3, §4

SORHA = test: Pre-emergence herbicidal activity on SORHA (johnsongrass, seedling); type: in vivo, Sorghum halepense
Description: as §1, §2, §3, §4

ECHCG = test: Pre-emergence herbicidal activity on ECHCG (barnyardgrass); type: in vivo, Echinochloa crus-galli
Description: as §1, §2, §3, §4

PANMI = test: Pre-emergence herbicidal activity on PANMI (wild proso millet); type: in vivo, Panicum miliaceum
Description: as §1, §2, §3, §4

AMARE = test: Pre-emergence herbicidal activity on AMARE (redroot pigweed); type: in vivo, Amaranthus retroflexus
Description: as §1, §2, §3, §4

CHEAL = test: Pre-emergence herbicidal activity on CHEAL (common lambsquarters); type: in vivo, Chenopodium album
Description: as §1, §2, §3, §4

BRAPP = test: Pre-emergence herbicidal activity on BRAPP (broadleaf signalgrass); type: in vivo, Brachiaria platyphylla
Description: as §1, §2, §3, §4

| Structure (SMILES) | Pre-emergence activity (GR80) on PANDI (PANDI) | Pre-emergence activity (GR80) on DATST (DATST) | Pre-emergence activity (GR80) on CIRAR (CIRAR) | Pre-emergence activity (GR80) on SOLNI (SOLNI) | Pre-emergence activity (GR80) on PORAL (POROL) [g/ha] | Pre-emergence activity (GR80) on ABUTH (ABUTH) | Pre-emergence activity (GR80) on SETFA (SETFA) | Pre-emergence activity (GR80) on CONAR (CONAR) | Pre-emergence activity (GR80) on DIGSA (DIGSA) | Pre-emergence activity (GR80) on SORHA (SORHA) | Pre-emergence activity (GR80) on ECHCG (ECHCG) | Pre-emergence activity (GR80) on PANMI (PANMI) | Pre-emergence activity (GR80) on AMARE (AMARE) [g/ha] | Pre-emergence activity (GR80) on CHEAL (CHEAL) [g/ha] | Pre-emergence activity (GR80) on BRAPP (BRAPP) |
| --- | --- | --- | --- | --- | --- | --- | --- | --- | --- | --- | --- | --- | --- | --- | --- |
| CC(CNC(=O)c1cccc(C(F)(F)F)c1)NC(=O)c1cccc(F)c1Cl (stereo not drawn) [Example 37] | 250 g/ha | 250 g/ha | 250 g/ha | 250 g/ha | 64 | 250 g/ha | 250 g/ha | 250 g/ha | 250 g/ha | 1000 g/ha | 1000 g/ha | 500 g/ha | 64 | 125 | 500 g/ha |
| Cc1cccc(C(=O)NC(C)CNC(=O)c2cccc(C(F)(F)F)c2)c1Cl (stereo not drawn) [Example 65] | 125 g/ha | 250 g/ha | 125 g/ha | 500 g/ha | 125 | 250 g/ha | 250 g/ha | 250 g/ha | 250 g/ha | * (Where herbicidal activity was evident but 80% inhibition was not achieved at the highest rate tested (typically 1000 g/ha), an asterisk (*) is shown) | 500 g/ha | 750 g/ha | 125 | 32 | 500 g/ha |
| C[C@H](CNC(=O)c1cccc(C(F)(F)F)c1)NC(=O)Oc1cccc(C(F)(F)F)c1 [Example 229, R—N-[1-methyl-2-(3-trifluoromethyl)phenylcarbonylamino]ethyl-3-(trifluoromethyl)phenylcarbamate] | 300 g/ha | phyto | 300 g/ha | 1000 g/ha | 100 | * (Where herbicidal activity was evident but 80% inhibition was not achieved at the highest rate tested (typically 1000 g/ha), an asterisk (*) is shown) | phyto | phyto | 1000 g/ha | phyto | phyto | phyto | 300 | 300 | – |
| Cc1cccc(C(=O)NC(C)CNC(=O)c2cccc(C(F)(F)F)c2)c1C (stereo not drawn) [Example 67] | 500 g/ha | 500 g/ha | 500 g/ha | – | 500 | 500 g/ha | 750 g/ha | 1000 g/ha | 500 g/ha | – | * (Where herbicidal activity was evident but 80% inhibition was not achieved at the highest rate tested (typically 1000 g/ha), an asterisk (*) is shown) | – | 500 | 250 | 1000 g/ha |
| Cc1ccc(C)c(C(=O)NC(C)CNC(=O)c2cccc(C(F)(F)F)c2)c1 (stereo not drawn) [Example 64] | 250 g/ha | 1000 g/ha | 250 g/ha | 250 g/ha | 250 | 500 g/ha | 1000 g/ha | – | 250 g/ha | * (Where herbicidal activity was evident but 80% inhibition was not achieved at the highest rate tested (typically 1000 g/ha), an asterisk (*) is shown) | 1000 g/ha | 500 g/ha | 250 | 250 | 500 g/ha |
| CC(CNC(=O)c1cccc(Br)c1)NC(=O)c1cccc(C(F)(F)F)c1F (stereo not drawn) [Example 152] | – | 750 g/ha | 250 g/ha | 500 g/ha | 125 | 750 g/ha | – | – | 500 g/ha | – | 750 g/ha | – | 250 | 250 | – |
| CC(CNC(=O)c1cccc(C(F)(F)F)c1)NC(=O)c1cccc(C(F)(F)F)c1I (stereo not drawn) [Example 15] | phyto | * (Where herbicidal activity was evident but 80% inhibition was not achieved at the highest rate tested (typically 1000 g/ha), an asterisk (*) is shown) | phyto | * (Where herbicidal activity was evident but 80% inhibition was not achieved at the highest rate tested (typically 1000 g/ha), an asterisk (*) is shown) | 500 | – | phyto | phyto | phyto | – | phyto | – | 64 | 125 | – |
| CC(CNC(=O)c1cccc(C(F)(F)F)c1)NC(=O)c1cc(C(F)(F)F)ccc1Cl (stereo not drawn) [Example 9] | 500 g/ha | 500 g/ha | 750 g/ha | 500 g/ha | 125 | phyto | 1000 g/ha | – | 500 g/ha | * (Where herbicidal activity was evident but 80% inhibition was not achieved at the highest rate tested (typically 1000 g/ha), an asterisk (*) is shown) | phyto | phyto | 125 | 500 | phyto |
| CC(CNC(=O)c1cccc(Cl)c1F)NC(=O)c1cccc(Cl)c1F (stereo not drawn) [Example 181] | phyto | * (Where herbicidal activity was evident but 80% inhibition was not achieved at the highest rate tested (typically 1000 g/ha), an asterisk (*) is shown) | * (Where herbicidal activity was evident but 80% inhibition was not achieved at the highest rate tested (typically 1000 g/ha), an asterisk (*) is shown) | * (Where herbicidal activity was evident but 80% inhibition was not achieved at the highest rate tested (typically 1000 g/ha), an asterisk (*) is shown) | – | phyto | phyto | phyto | 500 g/ha | – | – | – | 500 | 750 | – |
